Measurements reported in article PMC8472793 (Microorganisms, 2021).
Values belong to the compound of their own block, whether it stands above or below them.

Assays:
[1] = target: Pro1 (γ-glutamyl kinase, GK) (Saccharomyces cerevisiae, UniProt P32264, I150T); experiment: biochemical; conditions: read-out: relative activity at 500 mM proline
[2] = target: Pro1 (γ-glutamyl kinase, GK) (Saccharomyces cerevisiae, UniProt P32264, Q79H); experiment: biochemical; conditions: read-out: relative activity at 500 mM proline
Chain of Pro1 (γ-glutamyl kinase, GK) (Saccharomyces cerevisiae, UniProt P32264, Q79H) (P32264 whole entry Q79H): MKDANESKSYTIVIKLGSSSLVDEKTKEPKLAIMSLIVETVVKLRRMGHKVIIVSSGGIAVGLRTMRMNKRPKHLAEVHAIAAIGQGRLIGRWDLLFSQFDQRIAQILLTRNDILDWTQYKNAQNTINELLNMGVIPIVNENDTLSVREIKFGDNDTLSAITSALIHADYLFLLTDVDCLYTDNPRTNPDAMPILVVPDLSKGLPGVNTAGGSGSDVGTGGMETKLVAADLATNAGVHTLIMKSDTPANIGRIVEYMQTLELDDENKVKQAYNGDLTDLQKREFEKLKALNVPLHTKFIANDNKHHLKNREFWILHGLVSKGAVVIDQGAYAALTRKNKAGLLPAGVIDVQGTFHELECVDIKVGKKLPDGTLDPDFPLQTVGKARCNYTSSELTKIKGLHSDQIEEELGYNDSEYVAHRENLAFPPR

[3] = target: Pro1 (γ-glutamyl kinase, GK) (Saccharomyces cerevisiae, UniProt P32264, D143A); experiment: biochemical; conditions: read-out: relative activity at 500 mM proline
Chain of Pro1 (γ-glutamyl kinase, GK) (Saccharomyces cerevisiae, UniProt P32264, D143A) (P32264 whole entry D143A): as the sequence (P32264 whole entry Q79H) above, with H79Q, D143A counted along it

[4] = target: T1, Pro1 (γ-glutamyl kinase, GK) (Saccharomyces cerevisiae, UniProt P32264); experiment: PK/LDH-coupled ADP production, NADH oxidation at […] nm; format: biochemical; conditions: 10 mM MgCl2, 100 mM HEPES-NaOH pH 7.4, 30 °C, no proline
T1 sequence (P32264 1-428): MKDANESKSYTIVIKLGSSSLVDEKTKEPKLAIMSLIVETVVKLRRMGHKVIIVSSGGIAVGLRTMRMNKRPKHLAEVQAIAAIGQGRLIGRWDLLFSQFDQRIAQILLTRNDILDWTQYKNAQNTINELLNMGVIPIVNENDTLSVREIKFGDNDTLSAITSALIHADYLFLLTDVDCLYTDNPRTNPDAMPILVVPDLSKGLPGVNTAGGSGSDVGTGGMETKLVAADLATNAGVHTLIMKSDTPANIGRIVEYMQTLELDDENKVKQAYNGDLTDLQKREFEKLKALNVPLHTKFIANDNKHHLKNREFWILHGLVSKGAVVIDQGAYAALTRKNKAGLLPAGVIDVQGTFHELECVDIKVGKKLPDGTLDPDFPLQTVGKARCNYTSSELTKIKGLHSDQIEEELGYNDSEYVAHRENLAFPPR

Chain of Pro1 (γ-glutamyl kinase, GK) (Saccharomyces cerevisiae, UniProt P32264, I150T) (P32264 whole entry I150T): as the sequence (P32264 whole entry Q79H) above, with H79Q, I150T counted along it

activity at 500000 µM [1]: 50%
activity at 500000 µM [2]: ~96%
activity at 500000 µM [3]: ~95%
SMILES: O=C(O)[C@@H]1CCCN1 [proline]

SMILES: Nc1ncnc2c1ncn2[C@@H]1O[C@H](COP(=O)(O)OP(=O)(O)OP(=O)(O)O)[C@@H](O)[C@H]1O [ATP]
PK/LDH-coupled ADP production, NADH oxidation at 340 nm ([4]; 400 mM sodium glutamate, ATP 5 mM): GK activity was measured by the production of ADP in an enzyme-coupled system

SMILES: N[C@@H](CCC(=O)O)C(=O)O [sodium glutamate]
PK/LDH-coupled ADP production, NADH oxidation at 340 nm ([4]; 5 mM ATP, glutamate 400 mM): sodium glutamate was added to initiate the enzymatic reaction
